# From PubChem BioAssay (NCI)
#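 Briefly, cells in 96-well plates were exposed to five compound concentrations for 48 h, and endpoints were estimated by linear interpolation. GI50 is the concentration that inhibits growth by half. The concentration for full growth arrest is given as TGI.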 Where a SMILES comes first, the peptide text is derived from it. The star is where a group is joined. Ethyl(2-NMe3+) = C[N+](C)(C)CC*; Boc = CC(C)(C)OC(=O)*
# Tests used:
# Assay in all cases: NCI anticancer screen, dose series, 48 h
# OVCAR-5 ovarian = test system: OVCAR-5 ovarian
# SNB-19 CNS = test system: SNB-19 CNS
# CAKI-1 renal = test system: CAKI-1 renal
# UO-31 renal = test system: UO-31 renal
# MDA-MB-231 breast = test system: MDA-MB-231 breast
# MDA-MB-435 = test system: MDA-MB-435
# HL-60(TB) leukemia = test system: HL-60(TB) leukemia
# MDA-N = test system: MDA-N
SMILES,TGI (OVCAR-5 ovarian) [µM],TGI (SNB-19 CNS) [µM],TGI (CAKI-1 renal) [µM],TGI (UO-31 renal) [µM],TGI (MDA-MB-231 breast) [µM],TGI (MDA-MB-435) [µM],TGI (HL-60(TB) leukemia) [µM],TGI (MDA-N) [µM],GI50 (HL-60(TB) leukemia) [µM]
COc1cc([C@H]2CC(=O)C[C@H](c3cc(OC)c(OC)c(OC)c3)C23C(=O)c2ccccc2C3=O)cc(OC)c1OC,> 100,> 100,> 100,> 100,> 100,> 100,–,–,–
CC(NC(=O)C(Cc1ccc(OCC[N+](C)(C)C)cc1)NC(=O)OC(C)(C)C)C(=O)NC(Cc1ccccc1)C(=O)NCC(N)=O (stereo not given) (Boc-Y(Ethyl(2-NMe3+))AFG-NH2; configuration not given here),59.5,34.3,> 100,> 100,9.1,> 100,> 100,> 100,–
COc1ccc(/C=C2\N=C(SC)N(CN3CCCCC3)C2=O)cc1,> 100,> 100,–,> 100,> 100,> 100,–,> 100,–
COc1c(Br)cc(/C=C(\C#N)c2cccnc2)cc1Br,> 100,> 100,> 100,> 100,–,–,> 100,> 100,–
Cc1c(F)c(N)c2c(=O)cc(-c3ccc(N)c(F)c3)oc2c1F,15.8,46.4,0.114,60.1,46.3,> 100,> 100,> 89,–
CC(C)(C)OC(=O)NC(CCC(=O)OCc1ccccc1)C(=O)NCCCO (stereo not given),> 100,> 100,> 100,> 100,> 100,> 100,> 100,> 100,–
COc1cccc(N2C(=O)/C(=C\c3ccccc3)SC2c2cc(OC)c(OC)c(OC)c2)c1 (stereo not given),> 100,> 100,> 100,> 100,> 100,> 100,> 100,40.5,–
O=c1n(-c2ccccc2)c(=O)n2n1C1Cc3ccccc3C12 (stereo not given),> 100,> 100,> 100,> 100,> 100,> 100,> 100,> 100,–
CC(=O)N(C(C)=O)n1c(-c2ccccc2)n[nH]c1=O,> 100,> 100,–,> 100,> 100,> 100,–,> 100,–
COC(=O)c1c2c(cc3c1CC1(Cc4ccc(C(C)=O)cc4C1)C3)CCC2 (stereo not given),> 100,–,> 100,> 100,> 100,50.8,> 100,28.5,–
COC(=O)[C@@H](NC(=O)N(CCC#N)CCCN(C(=O)N[C@H](Cc1ccccc1)C(=O)OC)c1ccccc1)C(C)C,> 100,> 100,> 100,> 100,> 100,> 100,–,> 100,–
CC1=C(C(=O)N(C(C)C)C(C)C)CC(C(=O)N(C(C)C)C(C)C)=C(C)N1,> 100,> 100,> 100,> 100,> 100,> 100,> 100,> 100,–
CC(=O)c1cccc(Nc2nc3ccc(Cl)cc3c3[nH]c4ccccc4c23)c1,61.6,48.6,> 36.7,41.9,63.8,> 100,> 100,> 100,> 100
O=[N+]([O-])c1cc2c(c([N+](=O)[O-])c1)NCc1ccccc1O2,> 100,–,> 100,> 100,> 100,> 100,> 100,> 100,–
Cc1ccc(N2CCC3(CC2)OCCO3)cc1,> 100,> 100,> 100,> 100,> 100,> 100,> 100,> 100,–
COCn1cnc2c(=O)n(-c3ccc(OC)cc3)c(=S)n(-c3ccc(OC)cc3)c21,> 100,–,> 100,> 100,> 100,> 100,> 100,–,–
O=C(Cc1ccc(Cl)cc1)Nc1ccc2oc(-c3ccccc3)nc2c1,> 100,> 100,> 100,–,> 100,> 100,> 100,> 100,–
CC1=C(C)C1[N+](=O)[O-],> 100,> 100,> 100,> 100,> 100,> 100,> 100,> 100,–
C=CCN1C(=O)/C(=C/c2ccc(C)cc2)NC1=S,> 100,> 100,> 100,> 100,> 100,> 100,48.9,> 100,–
CN1CCCOC(c2ccc([N+](=O)[O-])cc2)O1 (stereo not given),> 100,> 100,> 100,> 100,> 100,> 100,–,> 100,–
COc1cc(/C=C2\C(=O)N(c3ccccc3Cl)C(c3ccccc3)S2(=O)=O)cc(OC)c1OC (stereo not given),> 100,> 100,> 100,> 100,> 100,> 100,> 100,42.5,–
Cc1ccc(C(=O)Nc2ccc(CP(=O)(O)O)cc2CP(=O)(O)O)cc1NC(=O)c1cccc(NC(=O)Nc2cccc(C(=O)Nc3cc(C(=O)Nc4ccc(CP(=O)(O)O)cc4CP(=O)(O)O)ccc3C)c2)c1,> 100,–,> 100,> 100,> 100,> 100,> 100,> 100,–
COc1ccc(N2C(=O)C(C)SC2c2cc3cc(Br)ccc3nc2Cl)cc1 (stereo not given),> 100,> 100,> 100,> 100,> 100,50.5,74.7,> 100,–
Cc1ccc(C)n1-c1ccccc1C1C=CN(C(=O)OC(C)(C)C)C=C1,> 100,> 100,> 100,> 100,53.3,> 100,> 100,> 100,–
COc1ccc(NC(=O)/C(=N/NC(N)=S)C2C(=O)NC(=S)NC2=O)c(OC)c1,> 100,> 100,> 100,> 100,> 100,> 100,> 100,> 100,–
